# Results as given in PMC3556473, “Absorption, metabolism and excretion of [^14C]pomalidomide in humans following oral administration” (Cancer Chemotherapy and Pharmacology, 2012).
# “And” between values parts separate entries of the source, which are not always exact repeats. Equal entries are not always repeated. Where two headings read alike, the source gives them in different places.
# How the values were obtained:
# [1] = cited from earlier work
# [2] = Plasma pharmacokinetics of pomalidomide and circulating metabolites by radiochromatography (metabolite profiling); format: in vivo, human; parameters: AUC0–24 / AUC0−∞: concentration or dose not given beside the values; details: for Plasma (% AUC relative to TRA): AUC0–24 (unchanged drug or metabolite)/AUC0–24 (TRA) * 100 %; for AUC/AUCTRA: plasma exposure relative to total radioactivity
# Experimental: Individual plasma samples collected from all subjects at 1, 2.5, 4, 6, 10, 12 and 24 h post-dose were analyzed for metabolite profiling. Samples were extracted with acetonitrile, the supernatant was removed, and the pellet was washed with 0.1 % formic acid in water and extracted again with acetonitrile. The combined supernatants were adjusted to 15 or 25 mL by adding acetonitrile then evaporated to dryness under a stream of nitrogen. The residues were re-suspended in 0.1 % formic acid in water, assayed for extraction recovery and analyzed for metabolite profiling. A control plasma sample spiked with [^14C]pomalidomide was extracted in a similar manner to determine the extraction efficiency and stability of [^14C]pomalidomide.
# (§1) HPLC analysis for metabolite profiling (HPLC Method 1) was performed using a Waters 2695 Alliance Separation Module (Waters Corp., Milford, MA) with the autosampler set to 4 °C. [^14C]Pomalidomide and metabolites were separated using an ACE C18 column (150 × 4.6 mm, 3 μm; Advanced Chromatography Technologies, Aberdeen, Scotland) equipped with an ACE C18 guard column (10 × 3 mm, 3 μm). The mobile phases used were 25 mM ammonium acetate in water: pH 5.5 with formic acid (mobile phase A) and methanol (mobile phase B). The column temperature was 30 °C, and the flow rate was 0.7 mL/min. The linear gradient was delivered as follows: 0–2 min 100 % A; 2–38 min to 64 % A; 38–44 min to 0 % A; 44–48 min hold at 0 % A; return to initial conditions over 2 min.
# (§2) Radioactivity profiles for plasma and excreta were determined by collecting the column eluate into 96-well Deepwell LumaPlates™ at a rate of 0.25 min/fraction. The plates were dried and the radioactivity in each well determined using a PerkinElmer TopCount® NXT™ Microplate Scintillation Counter. HPLC radiochromatograms were reconstructed using LC-ARC data handling software.
# For pomalidomide and metabolite concentrations in plasma based on metabolite profiling data, pharmacokinetic data were generated by non-compartmental analysis of plasma versus time profiles using WinNonlin (version 4.1, Enterprise Edition).
# [3] = Metabolite profiling of urine and feces (% of dose excreted); format: in vivo, human; details: radiochromatography; for % of dose excreted, Urine: pooled urine 0–72 h
# Experimental: For each subject, urine samples were pooled using an equal percentage by volume of the 0–6, 6–12, 12–24, 24–48 and 48–72 h samples. Pools of the 0–6, 6–12, 12–24, 24–48 and 48-72 h collections were also prepared across subjects and analyzed for metabolite profiling. Samples were mixed and centrifuged prior to the supernatants being transferred to fresh tubes for metabolite profiling analysis.
# For each subject, fecal homogenates for metabolite profiling were pooled using an equal percentage by weight of the 0–24, 24–48, 48–72 and 72–96 h samples. Pools of the 0–24, 24-48, 48–72 and 72–96 h collections were also prepared across subjects and analyzed for metabolite profiling. An aliquot of each pool was extracted with acetonitrile; samples were mixed and centrifuged. The supernatant was removed and the pellets re-suspended with 0.1 % formic acid and extracted with acetonitrile. The combined supernatants were evaporated to dryness under a stream of nitrogen and the residue re-suspended in methanol:0.1 % formic acid in water (1:1). Samples were assayed for extraction recovery prior to metabolite profiling. A control fecal homogenate spiked with [^14C]pomalidomide was extracted in a similar manner to determine the extraction efficiency and stability of [^14C]pomalidomide.
# as §1, §2
# [4] = Plasma pharmacokinetics of pomalidomide and its enantiomers (chiral LC–MS/MS) after a single oral 2 mg dose of [14C]pomalidomide; format: in vivo, human; details: for C max: healthy male subjects; for C max / AUC0−t / AUC0−∞ / t ½: mean ± SD (n = 8); for T max: median (min–max)
# Description: This was an open-label, in-patient, single-dose study in eight non-smoking healthy male adult volunteers conducted in accordance with Good Clinical Practices (GCP) and in compliance with the Declaration of Helsinki. The protocol and consent form were reviewed and approved by the appropriate institutional review board, and all study participants gave written informed consent, before initiation of any study-related procedure. Male subjects were eligible based on standard inclusion/exclusion criteria and were excluded if they had exposure to excess radiation or participated in a study involving radioisotopes within the previous 12 months. Subjects entered the study center on the day prior to dosing and remained at the center for up to 15 days following dosing or until the total radioactivity recovered in excreta was ≥90 % or the radioactivity recovered in excreta per day on three consecutive days was ≤1 % of the administered radioactive dose.
# Each subject was administered a single oral suspension of 2 mg (100 μCi) of [^14C]pomalidomide in seltzer water (75 mL) followed by administration of an additional 140 mL of distilled water. Subjects were fasted for 8 h prior to and 4 h following dose administration. The residual radioactivity in the dosing vials was determined, and for six of the eight subjects (subjects 1–4, 6 and 8), the administered dose (1.93–2.02 mg) was close to the target dose of 2 mg. For subjects 5 and 7, a significant amount of radioactivity remained in the dose vial, resulting in administered doses of 1.59 and 1.51 mg, respectively. Calculations for percent of dose recovered in excreta were based on the actual administered doses.
# Blood was collected into pre-chilled K3EDTA tubes at pre-dose, 0.5, 1, 1.5, 2, 2.5, 3, 4, 6, 8, 10, 12, 24, 48, 72, 120 and 168 h following dose administration. Blood for radioactivity counting was transferred to a clean tube and stored at or below 4 °C until analyzed. Plasma was harvested by centrifugation from the remaining blood. A plasma sample for radioactivity counting was transferred to a fresh tube. Three plasma aliquots were transferred to tubes containing citric acid for metabolite profiling and for determination of pomalidomide enantiomer concentrations in plasma. Urine was collected pre-dose, 0–6, 6-12, 12–24 and every 24 h thereafter up to 216 h (9 days) following dose administration and were stabilized with one volume of pH 1.5 Sorensen’s citrate buffer (25 mM sodium citrate buffer adjusted to pH 1.5). During the 12- to 24-h collection interval for subject 4, approximately 550 mL of urine was inadvertently poured into the wrong collection urinal and the sample was lost. […] Individual fecal samples were collected pre-dose and for up to 9 days following dose administration, and homogenized using approximately three volumes by weight of pH 1.5 Sorensen’s citrate buffer. All urine, fecal homogenates and plasma samples were stored at or below −20 °C until analyzed.
# Plasma concentrations of each pomalidomide enantiomer were determined using a chiral LC–MS/MS assay. The pomalidomide enantiomers and ^13C-labeled pomalidomide (internal standard; IS) were extracted from plasma (stabilized with citric acid) using liquid–liquid extraction with methyl tertiary butyl ether. After transfer to a new tube, the solvent was evaporated, and the samples were reconstituted and injected for LC–MS/MS analysis using a Chiral AGP (50 × 3.0 mm, 5 μm; Chrom Tech, Inc., Apple Valley, MN) analytical column. Positive ions were measured in the multiple reaction monitoring (MRM) mode using a Sciex API-4000 tandem mass spectrometer equipped with a Turbo Ion Spray source. For the QC samples, the accuracy ranged from 91.0 to 106.9 %. For study samples, the amount of [^14C]-labeled material was accounted for when calculating the concentration of enantiomers in plasma using an appropriate correction factor. […]
# H929 MM cell = test: Inhibition of MM cell proliferation ([3H]-thymidine incorporation, 3-day culture); format: cell-based; details: Homo sapiens, NCI-H929
# Experimental: (§3) Metabolites and hydrolysis products of pomalidomide were tested for pharmacological activity in the following three assay systems: (1) inhibition of MM cell proliferation, (2) enhancement of primary human T cell IL-2 production and (3) inhibition of TNF-α production by lipopolysaccharide (LPS)-stimulated human peripheral blood mononuclear cells (PBMC). For all three assay types, compounds were dissolved in 100 % dimethyl sulfoxide (DMSO) and diluted into complete cell culture medium, consisting of Roswell Park Memorial Institute (RPMI)-1640 plus penicillin, streptomycin and L-glutamine (Mediatech, Manassas, VA). The MM cell proliferation cell culture medium contained 10 % fetal bovine serum, while the primary human cell cultures contained 10 % human AB serum (Invitrogen, Brown Deer, WI). The final DMSO concentration in the cell culture media was 0.25 %.
# (§4) The human MM cell line OPM-2 was obtained from DSMZ (Braunschweig, Germany), and human MM cell lines U266 B1 and NCI-H929 were obtained from ATCC (Manassas, VA). Inhibition of MM cell proliferation was assessed by the [^3H]-thymidine incorporation assay in a 3-day culture in the presence of compounds in complete medium, as previously described. Primary human T cells were isolated from PBMC by negative selection using the RosetteSep T Cell Enrichment Cocktail (STEMCELL Technologies, Tukwila, WA) according to the manufacturer’s procedures. Costimulation of T cell IL-2 production was measured in a 2-day culture of primary human T cells isolated from healthy donors stimulated with anti-CD3 antibody in the presence of compounds, as previously described. Inhibition of TNF-α production by LPS-stimulated human PBMC was measured in a 1-day culture in the presence of compound, as previously described.
# OPM-2 MM cell = test: as above; format: cell-based; details: Homo sapiens
# Experimental: as §3, §4
# U266 MM cell = test: as above; format: cell-based; details: Homo sapiens, U-266
# Experimental: as §3, §4
# T cell IL-2 production = test: Enhancement of primary human T cell IL-2 production (anti-CD3 stimulated, 2-day culture); format: cell-based; details: 48 h, anti-CD3 stimulated primary human T cells
# Experimental: as §3, §4
# PBMC TNF-α production = test: Inhibition of TNF-α production by LPS-stimulated human PBMC (1-day culture); format: cell-based; details: 24 h
# Experimental: as §3, §4
# [5] = lenalidomide, listed as lenalidomide
# [6] = plasma, radiochromatography, geometric mean (%CV)
# [7] = plasma, radiochromatography, median and range
smiles,measurement,setting,value
"Nc1cccc2c1CN(C1CCC(=O)NC1=O)C2=O (stereo not drawn) [Lenalidomide, lenalidomide]","Percent dose excreted in human urine, Metabolites (oxidative and conjugative)",[1]; lenalidomide,5.3%
same,"Percent dose excreted in human urine, Parent",[1]; lenalidomide,81.7%
same,"Percent dose excreted in human urine, Total",[1]; lenalidomide,90.3%
same,"Percent dose excreted in human urine, Parent",[1]; [5],> 80%
same,"Percent dose excreted in human urine, Total",[1]; [5],> 90%
"Nc1cccc(C(=O)O)c1C(=O)O [Metabolite M2, 3-Aminophthalic acid]",Plasma (% AUC relative to TRA),[2],1.7%
same,Tmax,"[2]; human, oral, 2 mg, plasma, radiochromatography, median and range",6 h
same,half-life,"[2]; male, human, plasma, oral, 2 mg, plasma, radiochromatography, geometric mean (%CV), read-out: t ½ (converted)",13.2 h
same,AUC/AUCTRA,[2],1.71%
same,AUC0–24,[2]; [6],3.31 (28.4) ngEq*h/mL
same,AUC0−∞,[2]; [6],4.27 (12.7) ngEq*h/mL
same,C max,[2]; [6],0.238 (36.3) ngEq/mL
same,"% of dose excreted, Urine",[3],1.4%
"Nc1cccc2c1C(=O)N([C@@H]1CCC(=O)NC1=O)C2=O (single isomer, unassigned) [R-enantiomer]",C max,[4],6.36 ± 2.08 ng/mL
same,AUC0−t,[4],67.7 ± 33.8 ng·h/mL
same,AUC0−∞,[4],95.1 ± 46.1 ng·h/mL
same,t ½,[4],9.5 ± 3.2 h
same,T max,[4],3.0 (2.5–6.0) h
Nc1c(O[C@@H]2O[C@H](C(=O)O)[C@@H](O)[C@H](O)[C@H]2O)ccc2c1C(=O)N(C1CCC(=O)NC1=O)C2=O (stereo partly drawn) [Metabolite M12],Plasma (% AUC relative to TRA),[2],4.6%
same,AUC/AUCTRA,[2],4.59%
same,AUC0–24,[2]; [6],8.90 (20.9) ngEq*h/mL
same,AUC0−∞,[2]; [6],10.1 (30.2) ngEq*h/mL
same,C max,[2]; [6],0.664 (23.5) ngEq/mL
same,t ½,[2]; [6],9.06 (18.7) h
same,T max,[2]; [7],2.5 (1.0–6.0) h
same,"% of dose excreted, Urine",[3],17% and 17.1%
NC(=O)C(CCC(=O)O)N1C(=O)c2cccc(N)c2C1=O (stereo not drawn) [Metabolite M10],"% of dose excreted, Feces",[3]; pooled feces 0–96 h,0.3%
same,"% of dose excreted, Urine",[3],1.5%
same,IC50,H929 MM cell,> 1000 nM
same,IC50,OPM-2 MM cell,> 1000 nM
same,IC50,U266 MM cell,> 1000 nM
same,EC50,T cell IL-2 production,720 nM
same,IC50,PBMC TNF-α production,> 10000 nM
Nc1c(O[C@@H]2O[C@H](C(=O)O)[C@@H](O)[C@H](O)[C@H]2O)ccc2c1C(=O)N(C1CCC(=O)NC1=O)C2=O (stereo partly drawn) [Metabolite M13],Plasma (% AUC relative to TRA),[2],2.0%
same,AUC/AUCTRA,[2],1.99%
same,AUC0–24,[2]; [6],3.86 (54.0) ngEq*h/mL
same,AUC0−∞,[2]; [6],5.99 (48.9) ngEq*h/mL
same,C max,[2]; [6],0.362 (31.7) ngEq/mL
same,t ½,[2]; [6],9.97 (43.6) h
same,T max,[2]; [7],3.25 (1.0–6.0) h
same,"% of dose excreted, Urine",[3],12% and 12.4%
"Nc1cccc2c1C(=O)N([C@H]1CCC(=O)NC1=O)C2=O (single isomer, unassigned) [S-enantiomer]",C max,[4],6.78 ± 1.99 ng/mL
same,AUC0−t,[4],66.9 ± 34.1 ng·h/mL
same,AUC0−∞,[4],96.4 ± 58.2 ng·h/mL
same,t ½,[4],8.8 ± 4.5 h
same,T max,[4],3.0 (1.0–6.0) h
"O=C1CCC(N2C(=O)c3ccccc3C2=O)C(=O)N1 (stereo not drawn) [Thalidomide, thalidomide]","Percent dose excreted in human urine, Hydrolysis products",[1]; thalidomide,87.2%
same,"Percent dose excreted in human urine, Metabolites (oxidative and conjugative)",[1]; thalidomide,Trace
same,"Percent dose excreted in human urine, Parent",[1]; thalidomide,1.8%
same,"Percent dose excreted in human urine, Total",[1]; thalidomide,91.9%
same,"Percent dose excreted in human urine, Total","[1]; thalidomide, listed as thalidomide",> 90%
